Measured values as given in patent publication US10562878B2, “Cycloalkylamines as monoamine reuptake inhibitors” (Sunovion Pharmaceuticals Inc., priority 2006, dated 2020).
Read-outs that look alike come from different tables or passages of the source.

Tests used:
[1] = molecular target: T1, Norepinephrine Transporter (NET) sites in mouse brain (Mus musculus (Mouse), UniProt O55192); conditions: mice, 60 min after treatment
mice [2] = assay: Mouse tail suspension test; assay type: in vivo
[3] = molecular target: DA Transporter (DAT) sites in mouse brain (Mus musculus (Mouse), UniProt Q61327); assay: Ex vivo [3H] WIN 35428 binding to DAT sites in mouse brain after oral dosing; conditions: mice, 60 min after treatment; for receptor occupancy at 1 mg/kg / receptor occupancy at 3 mg/kg / receptor occupancy at 10 mg/kg / receptor occupancy at 30 mg/kg: mouse
[4] = molecular target: 5-HT Transporter (SERT) sites in mouse brain (Mus musculus (Mouse), UniProt Q60857); assay: Ex vivo [3H] citalopram binding to SERT sites in mouse brain after oral dosing; conditions: mice, 60 min after treatment; for receptor occupancy at 1 mg/kg / receptor occupancy at 3 mg/kg / receptor occupancy at 10 mg/kg / receptor occupancy at 30 mg/kg: mouse
mice [5] = assay: Mouse locomotor activity; assay type: in vivo
[6] = molecular target: T1, Norepinephrine Transporter (NET) sites in mouse brain; assay: in vivo; conditions: po, read-out: NET % Transporter Occupancy
[7] = molecular target: human serotonin transporter (Homo sapiens (Human), UniProt P31645); assay: Serotonin functional uptake assay, recombinant human transporter in HEK-293 cells; assay type: cell-based; conditions: Human serotonin transporter uptake; read-out: hSERT IC50
Sequence of human serotonin transporter (P31645 whole entry): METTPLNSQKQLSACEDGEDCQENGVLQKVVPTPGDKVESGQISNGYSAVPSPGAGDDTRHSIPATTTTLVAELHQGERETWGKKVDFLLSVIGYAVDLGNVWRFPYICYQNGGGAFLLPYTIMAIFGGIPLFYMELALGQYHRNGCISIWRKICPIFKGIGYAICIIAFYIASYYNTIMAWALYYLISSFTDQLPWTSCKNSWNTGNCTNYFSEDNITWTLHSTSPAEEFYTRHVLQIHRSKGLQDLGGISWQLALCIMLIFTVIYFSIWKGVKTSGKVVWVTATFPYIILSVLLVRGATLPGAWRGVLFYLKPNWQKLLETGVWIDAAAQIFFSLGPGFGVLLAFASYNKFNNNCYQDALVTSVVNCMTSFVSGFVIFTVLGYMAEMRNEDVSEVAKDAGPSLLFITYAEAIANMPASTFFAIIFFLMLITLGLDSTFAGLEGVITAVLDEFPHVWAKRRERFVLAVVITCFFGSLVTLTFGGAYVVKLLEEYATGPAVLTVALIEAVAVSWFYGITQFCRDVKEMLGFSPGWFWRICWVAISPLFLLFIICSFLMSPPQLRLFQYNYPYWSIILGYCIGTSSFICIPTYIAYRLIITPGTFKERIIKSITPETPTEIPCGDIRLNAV

Rats = assay: Rat forced swim test; assay type: in vivo
[8] = molecular target: human dopamine transporter (Homo sapiens (Human), UniProt Q01959); assay: Dopamine functional uptake assay, recombinant human transporter in CHO-K1 or HEK293 cells; assay type: cell-based; conditions: read-out: hDAT IC50
Sequence of human dopamine transporter (Q01959 whole entry): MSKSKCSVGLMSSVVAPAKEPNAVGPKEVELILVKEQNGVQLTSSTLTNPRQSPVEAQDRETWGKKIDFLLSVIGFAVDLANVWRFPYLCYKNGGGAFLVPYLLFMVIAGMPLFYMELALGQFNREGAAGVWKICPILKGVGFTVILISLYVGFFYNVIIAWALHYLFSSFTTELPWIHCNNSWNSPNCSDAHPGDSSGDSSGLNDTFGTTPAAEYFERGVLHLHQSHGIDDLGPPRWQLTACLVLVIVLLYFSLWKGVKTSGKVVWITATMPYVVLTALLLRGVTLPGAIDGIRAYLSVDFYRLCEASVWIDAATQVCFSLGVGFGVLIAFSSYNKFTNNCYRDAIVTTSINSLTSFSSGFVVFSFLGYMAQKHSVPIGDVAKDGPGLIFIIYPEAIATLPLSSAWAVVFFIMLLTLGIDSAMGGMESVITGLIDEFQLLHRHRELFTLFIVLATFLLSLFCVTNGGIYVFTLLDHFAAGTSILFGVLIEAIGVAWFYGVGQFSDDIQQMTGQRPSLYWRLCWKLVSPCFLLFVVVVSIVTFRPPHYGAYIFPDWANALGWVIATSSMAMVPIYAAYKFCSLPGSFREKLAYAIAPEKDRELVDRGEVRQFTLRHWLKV

[9] = molecular target: rat dopamine reuptake transporter (Rattus norvegicus (Rat), UniProt P23977); assay: Dopamine functional uptake assay, rat striatal synaptosomes; assay type: biochemical; conditions: read-out: rDAT IC50
[10] = molecular target: rat serotonin (5-HT) reuptake transporter (Rattus norvegicus (Rat), UniProt P31652); assay: Serotonin functional uptake assay, rat synaptosomes; assay type: biochemical; conditions: read-out: rSERT IC50
[11] = molecular target: human norepinephrine reuptake transporter (Homo sapiens (Human), UniProt P23975); conditions: cited from earlier work

Compound | NET Mean Specific Binding ± S.E.M. ([1]; 1 mg/kg PO) | NET Mean Specific Binding ± S.E.M. ([1]; 3 mg/kg PO) | NET Mean Specific Binding ± S.E.M. ([1]; 10 mg/kg PO) | NET Mean Specific Binding ± S.E.M. ([1]; 30 mg/kg PO) | Mouse Tail Suspension Mean Immobility Time ± S.E.M. (mice [2]; 10 mg/kg PO) | Mouse Tail Suspension Mean Immobility Time ± S.E.M. (mice [2]; 30 mg/kg PO) | DAT Mean Specific Binding ± S.E.M. ([3]; 1 mg/kg PO) | DAT Mean Specific Binding ± S.E.M. ([3]; 3 mg/kg PO) | DAT Mean Specific Binding ± S.E.M. ([3]; 30 mg/kg PO) | receptor occupancy at 1 mg/kg ([3]; 1 mg/kg PO) | receptor occupancy at 3 mg/kg ([3]; 3 mg/kg PO) | receptor occupancy at 10 mg/kg ([3]; 10 mg/kg PO) | receptor occupancy at 30 mg/kg ([3]; 30 mg/kg PO) | SERT Mean Specific Binding ± S.E.M. ([4]; 1 mg/kg PO) | SERT Mean Specific Binding ± S.E.M. ([4]; 3 mg/kg PO) | SERT Mean Specific Binding ± S.E.M. ([4]; 10 mg/kg PO) | SERT Mean Specific Binding ± S.E.M. ([4]; 30 mg/kg PO) | receptor occupancy at 1 mg/kg ([4]; 1 mg/kg PO) | receptor occupancy at 3 mg/kg ([4]; 3 mg/kg PO) | receptor occupancy at 10 mg/kg ([4]; 10 mg/kg PO) | other results
CN(C)C[C@]1(c2ccc3ccccc3c2)CCCC[C@H]1O (relative stereo) [164 E1, trans-2-((dimethylamino)methyl)-2-(naphthalen-2-yl)cyclohexanol] | 1122 ± 58 dpm | 1046 ± 23 dpm | 903 ± 48 dpm | 610 ± 59 dpm | 162.1 ± 4.6 | 155.3 ± 7.8 | 23574 ± 1313 dpm | 18002 ± 1516 dpm | 15630 ± 1085 dpm | -11% | 16% | 17% | 27% | 2796 ± 133 dpm | 2273 ± 74 dpm | 783 ± 61 dpm | 271 ± 50 dpm | 20% | 35% | 78% | DAT Mean Specific Binding ± S.E.M. ([3]; 10 mg/kg PO): 17727 ± 2871 dpm; receptor occupancy at 30 mg/kg ([4]; 30 mg/kg PO): 92%; Mouse Locomotor Activity Total Distance Traveled ± S.E.M. (mice [5]; 10 mg/kg PO): 210.3 ± 40.4; receptor occupancy at 1 mg/kg [6]: -8%; receptor occupancy at 3 mg/kg [6]: -1%; receptor occupancy at 10 mg/kg [6]: 13%; receptor occupancy at 30 mg/kg [6]: 41%
CN(C)C[C@]1(c2ccc(Cl)c(Cl)c2)CCCC[C@H]1O (relative stereo) [153 E2, trans-2-(3,4-dichlorophenyl)-2-((dimethylamino)methyl)cyclohexanol] | 1804 ± 79 dpm | 1726 ± 44 dpm | 1734 ± 62 dpm | 1140 ± 53 dpm | 170.2 ± 6.3 | 154.5 ± 8.4 | 22774 ± 916 dpm | 24159 ± 1313 dpm | 16194 ± 1293 dpm | -10% | -16% | -6% | 22% | 3271 ± 199 dpm | 2968 ± 100 dpm | 2327 ± 150 dpm | 1359 ± 89 dpm | -1% | 8% | 28% | IC50 [7]: 64 nM; Rat Forced Swim Climbing (Means ± S.E.M.) (Rats; 3 mg/kg PO): 8.8 ± 1.5; Rat Forced Swim Immobility (Means ± S.E.M.) (Rats; 3 mg/kg PO): 49.9 ± 1.7; Rat Forced Swim Swimming (Means ± S.E.M.) (Rats; 3 mg/kg PO): 1.9 ± 0.8; Rat Forced Swim Climbing (Means ± S.E.M.) (Rats; 10 mg/kg PO): 11.7 ± 1.8; Rat Forced Swim Immobility (Means ± S.E.M.) (Rats; 10 mg/kg PO): 44.0 ± 2.1; Rat Forced Swim Swimming (Means ± S.E.M.) (Rats; 10 mg/kg PO): 4.3 ± 1.1; Rat Forced Swim Climbing (Means ± S.E.M.) (Rats; 30 mg/kg PO): 22.2 ± 5.2; Rat Forced Swim Immobility (Means ± S.E.M.) (Rats; 30 mg/kg PO): 31.3 ± 6.7; Rat Forced Swim Swimming (Means ± S.E.M.) (Rats; 30 mg/kg PO): 4.6 ± 1.3; IC50 [8]: 25 nM; receptor occupancy at 30 mg/kg ([4]; 30 mg/kg PO): 58%; receptor occupancy at 1 mg/kg [6]: 6%; receptor occupancy at 3 mg/kg [6]: 10%; receptor occupancy at 10 mg/kg [6]: 9%; receptor occupancy at 30 mg/kg [6]: 40%
CN(C)C[C@]1(c2ccc(Cl)c(Cl)c2)CCC[C@H](O)C1 (single isomer, unassigned) [190 E2, Cis-3-(3,4-dichlorophenyl)-3-((dimethylamino)methyl)cyclohexanol] | – | – | – | – | – | – | – | – | – | – | – | – | – | – | – | – | – | – | – | – | IC50 [9]: 45 nM; IC50 [8]: 3 nM; IC50 [10]: 120 nM
COC(=O)C(c1ccccc1)C1CCCCN1 (stereo not shown) [methylphenidate] | – | – | – | – | – | – | – | – | – | – | – | – | – | – | – | – | – | – | – | – | reported potency (IC50 or Ki), inhibition of human norepinephrine reuptake transporter [11]: 38 nM
CCC(N)C1(c2ccc(Cl)c(Cl)c2)CCCCC1 (single isomer, unassigned) [17 E1, 1-(1-(3,4-dichlorophenyl)cyclohexyl)propan-1-amine] | – | – | – | – | 182.6 ± 4.1 | 150.9 ± 7.8 | – | – | – | – | – | – | – | – | – | – | – | – | – | – | Mouse Tail Suspension Mean Immobility Time ± S.E.M. (mice [2]; 3 mg/kg PO): 184.7 ± 9.0; Mouse Locomotor Activity Total Distance Traveled ± S.E.M. (mice [5]; 3 mg/kg PO): 649.3 ± 78.4; Mouse Locomotor Activity Total Distance Traveled ± S.E.M. (mice [5]; 10 mg/kg PO): 478.3 ± 88.5; Mouse Locomotor Activity Total Distance Traveled ± S.E.M. (mice [5]; 30 mg/kg PO): 428.3 ± 120.6
